# Results reported in US20050014788A1, “Piperidine derivatives and their use as modulators of chemokine receptor activity (especially ccr5)” (priority 2001, published 2005).
# Counter-ions that a name gives are not always drawn.
# Biological target: recombinant human CCR5 receptor (Homo sapiens, UniProt P51681)
# Assay: MIP-1α radioligand binding assay (scintillation proximity), CHO cell membranes
# Details: Pic50, negative log (base 10) of IC50 (M); displacement of 0.1 nM iodinated MIP-1α; CHO membranes with recombinant human CCR5; average if tested more than once
# Description: The ability of compounds to inhibit the binding of MIP-1 α was assessed by an in vitro radioligand binding assay. Membranes were prepared from Chinese hamster ovary cells which expressed the recombinant human CCR5 receptor. These membranes were incubated with 0.1 nM iodinated MIP-1α, scintillation proximity beads and various concentrations of the compounds of the invention in 96-well plates. The amount of iodinated MIP-1α bound to the receptor was determined by scintillation counting.
# In Table II the results are presented as Pic50 values. […] (that is 1×10^−6 M) gives a Pic50 of 6.
# recombinant human CCR5 receptor, sequence (P51681 whole entry): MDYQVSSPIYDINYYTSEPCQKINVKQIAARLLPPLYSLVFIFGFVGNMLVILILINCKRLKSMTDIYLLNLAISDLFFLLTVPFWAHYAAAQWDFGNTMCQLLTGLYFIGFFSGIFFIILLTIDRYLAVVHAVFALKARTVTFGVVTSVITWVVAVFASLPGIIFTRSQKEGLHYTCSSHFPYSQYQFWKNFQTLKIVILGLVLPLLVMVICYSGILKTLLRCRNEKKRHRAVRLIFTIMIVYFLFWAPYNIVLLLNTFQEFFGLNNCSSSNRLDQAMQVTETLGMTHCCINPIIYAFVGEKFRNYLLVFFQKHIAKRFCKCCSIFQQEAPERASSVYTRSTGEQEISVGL
row,SMILES,IC50
1,"CCN(C(=O)Cc1ccc(S(C)(=O)=O)cc1)C1CCN(CC[C@@H](c2ccccc2)c2ccc(S(C)(=O)=O)cc2)CC1 [Compound No. 50, (S)-N-[1-{3-phenyl-3-(4-methanesulfonylphenyl)propyl}-4-piperidinyl]-N-ethyl-4 methanesulfonylphenylacetamide]",8.13e-10 M
2,"CCN(C(=O)Cc1ccc(S(C)(=O)=O)cc1)C1CCN(CC[C@H](c2ccc(S(C)(=O)=O)cc2)c2ccc(F)c(F)c2)CC1 [Compound No. 54, (R)-N-[1-{3-(3,4-fluorophenyl)-3-(4-methanesulfonylphenyl)propyl}-4-piperidinyl]-N-ethyl-4-methanesulfonylphenylacetamide hydrochloride]",2.14e-08 M
3,CCN(C(=O)Cc1ccc(S(C)(=O)=O)cc1)C1CCN(CC[C@H](c2ccc(S(C)(=O)=O)cc2)c2cccc(F)c2)CC1 [compound 51],3.72e-10 M

# Same assay, conditions: negative log (base 10) of IC50 (M); displacement of 0.1 nM iodinated MIP-1α; CHO membranes with recombinant human CCR5; average if tested more than once
row,Pic50,SMILES
1,7.05,"CCN(C(=O)Cc1ccc(S(C)(=O)=O)cc1)C1CCN(CCC(c2ccc(NC(=O)OC(C)(C)C)cc2)c2cccc(F)c2)CC1 (stereo not shown) [Compound No. 43, N-[1-(3-[3-fluorophenyl]-3-[4-Boc-aminophenyl]propyl)-piperidin-4-yl]-N-ethyl-4-methanesulfonylphenylacetamide]"

# Same assay, conditions: negative log (base 10) of IC50 (M); displacement of 0.1 nM iodinated MIP-1α; CHO membranes with recombinant human CCR5; average if tested more than once; read-out: Pic50 (converted)
row,IC50,SMILES
1,1.17e-08 M,"CCN(C(=O)Cc1ccc(S(C)(=O)=O)cc1)C1CCN(CCC(c2ccccc2)c2ccc(SC)cc2)CC1 (stereo not shown) [Compound No. 41, N-[1-(3-phenyl-3-[4-methanethiophenyl]propyl)-piperidin-4-yl]-N-ethyl-4-methanesulfonylphenylacetamide]"
2,1.05e-07 M,"CCN(C(=O)Cc1ccc(S(C)(=O)=O)cc1)C1CCN(CCC(c2ccc(N)cc2)c2cccc(F)c2)CC1 (stereo not shown) [Compound No. 44, N-[1-(3-[3-fluorophenyl]-3-[4-aminophenyl]propyl)-piperidin-4-yl]-N-ethyl-4-methanesulfonylphenylacetamide hydrochloride]"
3,6.17e-09 M,CCN(C(=O)Cc1ccc(S(C)(=O)=O)cc1)C1CCN(CCC(c2ccc(NS(C)(=O)=O)cc2)c2cccc(F)c2)CC1 (stereo not shown) [Compound No. 49]
4,8.51e-07 M,CCN(C(=O)Cc1ccc(S(C)(=O)=O)cc1)C1CCN(CCC(c2ccccc2)c2ccc(NS(=O)(=O)c3ccccc3)cc2)CC1 (stereo not shown) [compound 28]
5,1.32e-08 M,CCN(C(=O)Cc1ccc(S(C)(=O)=O)cc1)C1CCN(CCC(c2ccccc2)c2ccc(NC(=O)NC(C)C)cc2)CC1 (stereo not shown) [compound 42]
6,3.63e-09 M,CCN(C(=O)Cc1ccc(S(C)(=O)=O)cc1)C1CCN(CCC(c2ccc(NC(C)=O)cc2)c2cccc(F)c2)CC1 (stereo not shown) [compound 45]
7,9.12e-09 M,CCN(C(=O)Cc1ccc(S(C)(=O)=O)cc1)C1CCN(CCC(c2ccc(NS(C)(=O)=O)cc2)c2cccc(F)c2)CC1 (stereo not shown) [compound 46]
8,3.47e-08 M,CCN(C(=O)Cc1ccc(S(C)(=O)=O)cc1)C1CCN(CCC(c2ccc(NC(=O)c3ccc(S(C)(=O)=O)cc3)cc2)c2cccc(F)c2)CC1 (stereo not shown) [compound 47]
9,1.38e-08 M,CCN(C(=O)Cc1ccc(S(C)(=O)=O)cc1)C1CCN(CCC(c2ccccc2)c2ccc([S+](C)[O-])cc2)CC1 (stereo not shown) [compound 75]
